{"source": "paper PMC3858566", "about": "“Identification of a novel peptide that blocks basic fibroblast growth factor-mediated cell proliferation” (Oncotarget, 2013)", "key": {"[1]": {"tested_on": "B16-F10 cells", "experiment": "Flow cytometric analysis of cell cycle", "assay_type": "cell-based, murine", "conditions": "48 h", "protocol": "Cells were starved for 24 h, and treated with 30 ng/ml bFGF or 30 ng/mL bFGF plus serially-diluted peptides for 48 h. After fixing in 70% ice-cold ethanol for 30 min at 4 °C and washing with PBS for 3 times, cells were stained with propidium iodide (PI) in the dark at room temperature for 30 min. The ModFit DNA analysis program was applied to analyze the percentages of cells at various phases of the cell cycle."}, "[2]": {"tested_on": "bFGF receptors on Balb/c 3T3 cells", "conditions": "range of values previously published; cited from earlier work"}, "[3]": {"tested_on": "B16-F10 murine melanoma cells", "conditions": "48 h, 10 nM", "quoted_text": "Cells were seeded in 96-well plates (5 × 10^3 cells/well) in DMEM containing 10% FBS. After incubation at 37°C for 24 h, the culture medium was replaced by DMEM containing 0.4% FBS to starve the cells for 24 h. The medium was then replaced by DMEM containing 30 ng/ml bFGF, or 30 ng/mL bFGF plus peptide at various concentrations. After culturing for 48 h, the number of viable cells was determined by the methylthiazoletetrazolium (MTT) method as previously described [5]."}, "[4]": {"tested_on": "bFGF receptors on Balb/c 3T3 cells", "experiment": "Receptor binding assay (125I-bFGF competition, Scatchard analysis)", "protocol": "The recombinant bFGF was iodinated by the modified chloramine-T method. Briefly, bFGF (5 μg/50 μ1 in 0.5 M phosphate buffer, pH 7.4) was incubated with chloramine-T (20 μg/10 µl of phosphate buffer) and ^125I-labeled sodium (1.12 mCi/10 μ1) at room temperature for 55 sec. The reaction was immediately terminated by the addition of sodium metabisulflte (250 μg/200 μl) and 1% potassium iodide (100 μl), and the mixture was applied to a Sephadex G-50 column (1×20 cm) preequilibrated in 50 mM phosphate buffer containing 0.1% BSA to separate ^125I-labeled bFGF from free ^125I.\nConfluent Balb/c 3T3 cells (0.5×10^6/well) were incubated with binding buffer (DMEM, 20mM HEPES, pH7.4) containing ^125I-bFGF (50000 cpm) and different concentrations of unlabeled ligand (bFGF or the synthetic peptide) for 2.5 h at 4°C. For nonspecific binding, cells were incubated with ^125I-bFGF (50000 cpm) and an excess of unlabeled bFGF (200 nM). The cells were washed with (3 × 1 ml) cold PBS (50 mM, PH7.4), and lysed with 1% Triton X-100 (500 μl). The radioactivity of the extracts was measured in a γ counter. Specific binding was determined as the difference between total and nonspecific binding, and data were analyzed by Scatchard analysis."}, "[5]": {"target": "T1, bFGF receptors (FGFR1c/FGFR2c on Balb/c 3T3 cells) (Mus musculus, UniProt P16092)", "T1 chain": "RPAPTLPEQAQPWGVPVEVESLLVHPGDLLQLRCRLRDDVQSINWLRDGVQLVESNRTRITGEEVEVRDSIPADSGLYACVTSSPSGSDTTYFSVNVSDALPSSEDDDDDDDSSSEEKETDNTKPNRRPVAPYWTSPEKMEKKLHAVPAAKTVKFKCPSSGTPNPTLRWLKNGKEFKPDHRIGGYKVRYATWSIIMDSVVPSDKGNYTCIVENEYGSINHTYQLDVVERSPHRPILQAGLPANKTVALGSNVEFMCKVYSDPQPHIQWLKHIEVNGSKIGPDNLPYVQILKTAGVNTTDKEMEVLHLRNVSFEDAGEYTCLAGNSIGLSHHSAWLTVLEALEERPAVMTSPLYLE", "experiment": "125I-bFGF competition binding on cells"}, "[6]": {"conditions": "30 ng/ml bFGF alone, mean ± SD of 3 independent experiments"}}, "note": "Where no end group is shown, it is not given here."}
{"molecule": "basic fibroblast growth factor [bFGF]", "values": [{"measurement": "G0/G1", "setting": "[1]; [6]", "result": "26.45 ± 1.01", "unit": "%"}, {"measurement": "G2/M", "setting": "[1]; [6]", "result": "7.46 ± 0.56", "unit": "%"}, {"measurement": "S", "setting": "[1]; 30 ng/ml bFGF alone, mean ± SD of 3 independent experiments, * P<0.01 vs control group", "result": "66.09 ± 1.22", "unit": "%"}, {"measurement": "effect of bFGF on cell cycle", "setting": "[1]; bFGF alone, 30 ng/ml", "result": "significantly increased the percentage of S phase cells, and decreased the ratio of G0/G1 phase cells"}, {"measurement": "receptor sites per cell of high affinity bFGF receptors, previously published", "setting": "[2]", "result": "0.2-10 ×10^4 sites/cell"}]}
{"molecule": "LSPPRYPGGGS-NH2 [P9 peptides]", "values": [{"measurement": "inhibition of bFGF-stimulated proliferation", "setting": "[3]", "result": "~90", "unit": "%"}]}
{"molecule": "^125I-bFGF: recombinant bFGF iodinated by the modified chloramine-T method", "values": [{"measurement": "receptor population, 125I-bFGF binding, without P9", "setting": "[4]", "result": "approximately 9,600 sites/cell"}]}
{"molecule": "LSPPRYPGGGS-NH2", "note": "[P9 peptide]", "values": [{"measurement": "IC50", "setting": "[5]", "result": "~2.5", "unit": "nM"}]}
